According to patent US10617677B2, “Nuclear transport modulators and uses thereof” (Biogen MA Inc., priority 2012, dated 2020):
Entries after “also recorded” stand apart in the source; their conditions may differ.

Legend:
Nrf2 pathway = Nrf2 pathway induction in THP-1 cells with or without KEAP1 knockdown (quantitative PCR); type: cell-based, human
Description: THP-1 (human acute monocytic leukemia cells) cells were used to evaluate the effects of Compound 1 on the Nrf2 pathway in an inflammation environment. Nuclear factor (erythroid-derived 2)-like 2 (Nrf2) is an anti-inflammatory transcription factor. Under normal conditions, Nrf2 is kept in the cytoplasm by Kelch like-ECH associated protein 1 (KEAP1), which degrades Nrf2 by ubiquitination. Nrf2 can also move into the nucleus and back into the cytoplasm as a CRM1 cargo. In the current study, Nrf2 was protected from degradation by knocking down KEAP1 with siRNA. Then, KEAP1-depleted cells were treated with TNFα to induce inflammation, and the ability of Compound 1 to reverse inflammation by up-regulation of the Nrf2 pathway was tested.
THP-1 (acute monocytic leukemia) cells were plated in two 10 cm culture dishes (6*10^6 cells/dish) with RPMI-1640 medium (Lonza) supplemented with 10% heat-inactivated fetal bovine serum (Invitrogen) and 2-mercaptoethanol to a final concentration of 0.05 mM. Cells in one dish were transfected with 50 nM of KEAP1 siRNA (Life Technologies, Silencer Select, siRNA ID # s18982) using Lipofectamine RNAiMax (Invitrogen), whereas the cells in the other dish were transfected with 50 nM of control siRNA, Block-iT (Invitrogen). Transfected cells were left for 72 h and the KEAP1 knockdown efficiency was calculated with quantitative PCR using a probe against KEAP1.
Next, the cells from each of the dishes were divided equally into 4 wells in different 6-well plates. One of the wells from each of the plates was pre-treated with 1 μM of Compound 1 for 1 h, followed by 20 ng/mL TNFα for 24 h. The other wells were treated with either 1 μM Compound 1 or 20 ng/mL TNFα or neither for 24 h. Following the treatment, RNA was extracted from the cells using an RNA extraction kit (Qiagen). RNA samples from each treatment group were reverse transcribed and real-time PCR was performed on the corresponding cDNA sequences using probes against Nrf2 and two of its downstream genes, NQO1 and EPHX1. THP-1 cells were transfected with KEAP1 siRNA. 40% knockdown efficiency was achieved. The KEAP1 knockdown cells were treated with either 1 μM of Compound 1 or 20 ng/mL of TNFα or both together for 24 h.

[1] = system: collagen-induced arthritis; assay: Collagen-induced arthritis (CIA) Study No. 2 in Lewis rats; type: in vivo
Method: To further investigate the effect of the compounds described herein on inflammation biomarkers, a second CIA model was initiated. In this model, the groups were designated as group A (naïve), group B (model; vehicle-treated), group C (Compound 2 at 5 mg/kg QoD). The rats in groups B and C were immunized intradermally with bovine Type II collagen in IFA on day 0, and a booster injection was given on day 7. Compound 2 was orally administered to rats with CIA after the onset of arthritis (Day 11). CIA development was evaluated via macroscopic scoring and measurements of paw swelling. This was assessed every day for the first 5 days after sensitization (day 7), and then twice per week (Monday and Thursday) until Day 28 using the clinical scoring system described in Table 7 above. In addition, ELISAs for CD45, CRP, CCL2/MCP-1, TNF-α, IL1-β, IL-6, IL-17, and measurements for cathepsin K and elastase were performed 4 days (Day 15 of the study) and 10 days (Day 21 of the study—peak for the disease) after compound treatment and at the very end of the study (Day 28) on all group animals. Additionally, on the last day of the study (Day 28), a few representative animals from each group were subjected to three-dimensional micro-tomodensitometry of calcaneus, and bone erosion in the paws was quantified.
A LUMINEX® assay and ELISA were used to measure the effects of Compound 2 on the levels of pro-inflammatory cytokines and inflammation markers. Synovial fluid was collected on Day 21, after the first immunization, from 2 rats in the model group and 2 rats in the Compound 2-treated group, and at the end of the study from 2 rats in the naïve group, 3 rats in the model group and 3 rats in the Compound 2-treated group.
A LUMINEX® assay was also used to measure the levels of pro-inflammatory cytokines in serum. Serum samples (1 mL of blood per rat) were collected 4 days after compound treatment (Day 15), 10 days after compound treatment (usually at the disease peak—Day 21) and at the end of the study (Day 27).

diet-induced obesity = assay: Diet-induced obesity (DIO) model in Sprague-Dawley rats; type: in vivo
Method: Male Sprague-Dawley rats of age 2 months were placed on a high fat diet (Research Diets Inc., product code D12492, 60% kcal % fat) for 3 months. A group of age-matched rats were fed normal lab chow (LabDiet 5001, ˜13% kcal % fat), these animals served as controls for DIO group.
At age 4 months, and 2 months into placement of high fat diet, all rats were allocated into 3 groups of N=7 based on equivalent body weights and food intakes. Body weights and food and water intakes were measured at approximately the same time each day. On treatment days, dosing was at approximately 2 hours before lights off.
The DIO control group was treated with vehicle (oral, 10 mL/kg dose volume; 0.5% Pluronic F68 and 0.5% PVP K29/32 in water) on each weekday. The Compound 2 1.5 mg/kg group was orally treated on each weekday throughout the treatment phase (dose 10 mL/kg dose volume; 0.5% Pluronic F68 and 0.5% PVP K29/32 in water). The Compound 2 3 mg/kg group (10 mL/kg dose volume; 0.5% Pluronic F68 and 0.5% PVP K29/32 in water) was orally treated initially once daily on each weekday for week 1, then twice weekly (Monday, Wednesday) for week 2. During treatment weeks 3 and 4, Compound 2 3 mg/kg treatment continued twice weekly, except dosing was on Monday and Thursday.
Prior to the treatment phase, 3 days baseline data were collected. The treatment phase was for 4 weeks. A washout phase of 10 days was also included.
Compound 2 was supplied in powder form. […] Active percentage was adjusted using BEW of 1.437 and prepared by dissolving into 0.5% w/v Pluronic F-68 and 0.5% w/v PVP K-29-32 vehicle solution. The vehicle solution was prepared on a weekly basis while Compound 2 was prepared fresh every 2 days and stored at +4° C. Animals were dosed at a volume of 10 mL/kg. Individual doses were calculated based on the most recent body weights to provide the proper mg/kg/day dosage.

[2] = 1 μM Compound 1 + 20 ng/mL TNFα, 24 h, KEAP1 knockdown
[3] = 1 μM Compound 1 + 20 ng/mL TNFα, 24 h, without KEAP1 knockdown
[4] = 1.5-3 mg/kg oral, 28 day treatment period

CC(C)(C)C(=O)NNC(=O)/C=C\n1cnc(-c2cc(C(F)(F)F)cc(C(F)(F)F)c2)n1 [Compound 1, (Z)-3-(3-(3,5-bis(trifluoromethyl)phenyl)-1H-1,2,4-triazol-1-yl)-N′-pivaloylacrylohydrazide]
increase in NQO1 expression (Nrf2 pathway; [2]): 4 fold
increase in Nrf2 expression compared to untreated cells (Nrf2 pathway; [2]): 2.5 fold
increase in NQO1 expression (Nrf2 pathway; [3]): 2 fold
increase in Nrf2 mRNA levels (Nrf2 pathway; [3]): ≤ 3 fold
induction of EPHX1 expression (Nrf2 pathway; [3]): 1.5 fold
EPHX1 mRNA expression (Nrf2 pathway; 1 μM Compound 1, presence or absence of TNFα): up-regulated the expression of EPHX1
Nrf2 expression (Nrf2 pathway; 1 μM Compound 1 alone, with or without KEAP1 knockdown): did not have any significant effect
Nrf2 signaling (Nrf2 pathway; 1 μM for 24 hrs in the presence of 20 ng/mL TNFα): up-regulated Nrf2 signaling

O=C(/C=C\n1cnc(-c2cc(C(F)(F)F)cc(C(F)(F)F)c2)n1)NNC(=O)CN1CCOCC1 [Compound 2, (Z)-3-(3-(3,5-bis(trifluoromethyl)phenyl)-1H-1,2,4-triazol-1-yl)-N′-(2-morpholinoacetyl)acrylohydrazide]
clinical scores compared to vehicle-treated rats ([1]; 5 mg/kg QoD oral): significantly reduced
joint swelling compared to vehicle-treated rats ([1]; 5 mg/kg QoD oral): significantly reduced
bone erosion in the rear paws compared to vehicle-treated rats ([1]; 5 mg/kg QoD oral, Day 28): significantly reduced bone erosion
IL-1β production in serum compared to the model group ([1]; 5 mg/kg QoD, Days 15, 21 and 27): inhibitory effect
C-reactive protein (CRP) in synovial fluid compared to the model group ([1]; 5 mg/kg QoD, Days 21 and 27): inhibitory effects
IL-1β in synovial fluid compared to the model group ([1]; 5 mg/kg QoD, Days 21 and 27): inhibitory effects
IL-6 in synovial fluid compared to the model group ([1]; 5 mg/kg QoD, Days 21 and 27): inhibitory effects
MCP-1 in synovial fluid compared to the model group ([1]; 5 mg/kg QoD, Days 21 and 27): inhibitory effects
body weight compared to DIO control group (diet-induced obesity; [4]): dose-related decrease
daily food intake compared to DIO control group (diet-induced obesity; [4]): dose-related decrease; also recorded: decreases daily food intake in a dose dependent manner
water intake (diet-induced obesity; [4]): significantly increased water intake
body weight gain (percentage of body weight change from study day 3) compared to DIO controls (diet-induced obesity; 1.5 and 3 mg/kg, treatment days 7 and 14): significant reduction in weight gain; also recorded: affects body weight gain at both 1.5 and 3 mg/kg doses
body weight compared to DIO controls (diet-induced obesity; washout phase): remained lower than DIO controls
